pIC50: −log10 of the molar value.
Tests used:
[1] = tested on: phosphodiesterase IV b mRNA; test: phosphodiesterase IV-b mRNA in U937 cells (Taqman); assay type: cell-based, human; settings: four hours of incubation; for PDE activity (phosphodiesterase IV b mRNA) after application: PGE 1×10^−6, 19-hydroxy PGE2 5×10^−6, without rolipram
Protocol: Template was amplified in a Taqman 7700 machine for 40 cycles using FAM/TAMRA dyes on the probe. The Applied Biosystems kit was used to amplify and detect ribosomal (18S)RNA (using VIC/TAMRA dyes) as an internal control in the same reaction tube. After 40 cycles the Ct (related to cycle number at which signal appears) for the FAM and the 18S (VIC) were recorded and […] relative quantitation was achieved using the formula 2^−ΔΔCt where Δ refers to the difference between the FAM and VIC signal related to an standard comparator included in each run.
The mRNA for phosphodiesterase IV-b was measured as described in Example 2 above. mRNA was extracted after four hours of incubation. The concentration of the PGE was 1×10^−6 and that of the 19-hydroxy PGE2 was 5×10^−6. The following primers and Taqman probe were used for quantitation of PDE IV b mRNA.

[2] = tested on: IL-10 release from U937 cells; test: IL-10 release from U937 cells (ELISA); assay type: cell-based, human
Protocol: U 937 cells were grown in RPMI (PAA Laboratories) medium with 10% fetal calf serum added (PAA Laboratories). 2×10^6 cells per flask were treated with prostaglandin E2 at 10^−6 Molar or with Rolipram (4×10^−6) for 24 hours. Medium was removed at 20 hours and analysed by ELISA. A capture antibody (Pharmingen) was coated onto 96 well plates and culture medium was added each well. A standard curve was created with recombinant IL-10 protein. After incubation and washing, a biotin labelled monoclonal antibody (Pharmingen) was added and following incubation and washing, peroxidase labelled streptavidin was added. After washing a tetramethyl benzidine substrate was added and colour developed in proportion to IL-10 in the original sample/standard. Colour was read using a plate photometer (Labsystems, Multiskan). Mean concentrations (N=3) in controls with no lipopolysaccharide (LPS) were […] and in the presence of LPS (100 nM) they were 43.9 […].
The effect of PGE1, PGE2, 19 hydroxy PGE1 and 19 hydroxy PGE2 on the stimulation of IL-10 in the presence and absence of rolipram was investigated as described above in Example 2. IL-10 levels were measured using an ELISA assay (R&D Ltd, Oxford). Measurement was performed according to the manufacturer's instructions.

[3] = in vivo; cited from earlier work
type IV PDE = settings: cited from earlier work; for pIC50: type IV PDE selective inhibitor
PDE = settings: cited from earlier work
[4] = tested on: monocyte/macrophages stimulated with lipopolysaccharide (LPS); settings: cited from earlier work

With 19-hydroxy PGE2 the “PDE activity (phosphodiesterase IV b mRNA) after application” value [1] was “increase”, the “concentration necessary to achieve similar effects to PGE” value ([2]; compared with PGE) was “higher concentration” and the “stimulation of IL-10 in the presence of a PDE inhibitor” value [2] was “increased strikingly”.
In the case of `CCCCC(C)(O)CC=C[C@H]1[C@H](O)CC(=O)[C@@H]1CCCCCCC(=O)OC` (mixture of isomers) [Cytotec, (±) methyl 11α, 16-dihydroxy-16-methyl-9-oxoprost-13-enoate], the hypotension [3] is given as “does not cause hypotension”.
For `COc1ccc(C2CNC(=O)NC2)cc1O[C@H]1C[C@@H]2CC[C@H]1C2` [CP 80 633], the “type IV PDE inhibition” value (type IV PDE) is given as “potent type IV inhibitors”.
In the case of `CC(C)Cn1c(=O)n(C)c(=O)c2[nH]cnc21` [IBMX, 3-isobutyl-1-methylxanthine], the pIC50 (PDE; non-specific PDE inhibitor) is given as 4.30 to 5.70.
With `CCCCC[C@H](O)/C=C/[C@H]1[C@H](O)CC(=O)[C@@H]1C/C=C\CCCC(=O)O` [PGE2, prostaglandin E2] the “PDE activity (phosphodiesterase IV b mRNA) after application” value [1] was “increase”, the “PDE message levels with a type IV selective PDE inhibitor” value ([1]; with type IV selective PDE inhibitor (rolipram)) was “increases PDE message levels even further” and the “effect on release of IL-10 in combination with PDE inhibitor rolipram” value ([2]; combination with rolipram) was “synergistic”. The “stimulation of IL-10 in the presence of a PDE inhibitor” value [2] was “increased strikingly”.
For `CCCCOc1cc(CC2CNC(=O)N2)ccc1OC` (stereo not shown) [Ro-20-1724, 4-[3-butoxy-4-methoxybenzyl]-2-imidazolidinone], the pIC50 (type IV PDE) is listed as 5.70.
For `Cn1c(=O)c2c(ncn2C)n(C)c1=O` [caffeine], the “activity as non-specific PDE inhibitor” value (PDE; compared with theophylline, IBMX and pentoxifylline) is given as “not as active as the others”.
For `COc1ccc(C2CNC(=O)C2)cc1OC1CCCC1` (stereo not shown) [rolipram, 4-[3-cyclopentyloxy-4-methoxyphenyl]-2-pyrrolidinone], the IL-10 levels [4] is given as “raise”, the cAMP levels [4] is given as “raise” and the pIC50 (type IV PDE) is given as 6.10.
For `Cn1c(=O)c2[nH]cnc2n(C)c1=O` [theophylline], the “times less effective than rolipram” value (type IV PDE; non-selective inhibitor compared with rolipram) is given as 30 times.
